Where two headings read alike, the source gives them in different places.
Assay: Pharmacokinetics of Compound A after single oral administration at 200 mg in fasted and fed dogs
Type: in vivo, male beagle dogs
Conditions: 200 mg oral dose; for AUC(0-t) / Tmax / half-life / Cmax: male, po, 200 mg; for Tmax: median; for half-life: N = 2, poor linear regression; for Cmax: Gelucire 50/13 size 00 hard gelatin capsule, N=3
Method: Example 8: Pharmacokinetics of Compound a after Single Oral Administration at 200 Mg in Fasted and Fed Dogs
A pharmacokinetic (PK) study was carried out using a Compound A stearoyl polyoxy-32 glycerides formulation.
A formulation of compound A and stearoyl polyoxy-32 glycerides (Gelucire® 50/13) in size 00 hard gelatin capsules (200 mg dose per capsule), according to Table 3, was administered orally to male beagle dogs (N=3) in a fasted state as well as a fed state.

[1] = beagle, dog, plasma, fasted male dogs, Gelucire 50/13 hard gelatin capsule
[2] = beagle, dog, plasma, fed male dogs, Gelucire 50/13 hard gelatin capsule

AUC(0-inf) (beagle, dog, plasma, fasted male dogs, Gelucire 50/13 hard gelatin capsule, mean): 578 µg·h/mL
Fed vs Fasted (fed male dogs, fasted group as reference): 1.3
AUC(0-t) (beagle, dog, plasma, fasted male dogs, Gelucire 50/13 hard gelatin capsule, mean, read-out: AUC0-24 h): 246 µg·h/mL
AUC(0-t) (beagle, dog, plasma, fasted male dogs, Gelucire 50/13 hard gelatin capsule, mean, read-out: AUC0-96 h): 521 µg·h/mL
Tmax [1]: 2 h
half-life [1]: 30 h
Cmax (beagle, dog, plasma, fasted male dogs, mean): 16000 ng/mL
AUC(0-t) (beagle, dog, plasma, fed male dogs, Gelucire 50/13 hard gelatin capsule, mean, read-out: AUC0-24 h): 121 µg·h/mL
AUC(0-t) (beagle, dog, plasma, fed male dogs, Gelucire 50/13 hard gelatin capsule, mean, read-out: AUC0-96 h): 502 µg·h/mL
Tmax [2]: 24 h
half-life [2]: 34 h
Cmax (beagle, dog, plasma, fed male dogs, mean): 9330 ng/mL
Compound: O=C(Nc1ccnc(C(F)(F)F)c1)c1cnn(-c2cccc3c(=O)[nH]ccc23)c1C(F)(F)F [Compound A, 1-(1-oxo-1,2-dihydroisoquinolin-5-yl)-5-(trifluoromethyl)-N-(2-(trifluoromethyl)pyridin-4-yl)-1H-pyrazole-4-carboxamide]
